2 molecules from patent US4554367A, “Phosphonium organohalogenostannates-IV” (priority 1982, dated 1985) can be followed below.

SMILES strings stand for the structures. Some results are limits rather than exact numbers.

The test system of one experiment is Venturia inaequalis. The experiment in a line: Residual protective action against Venturia inaequalis on apple shoots. Conditions: 0.02% of active substance, 15 days after infection. In kind it is in vivo. On the procedure: Residual protective action against Venturia inaequalis on apple shoots
Apple cuttings with fresh shoots 10-20 cm long were sprayed with a spray liquor (0.02% of active substance) prepared from a wettable powder of the active substance. After 24 hours, the treated plants were infected with a conidia suspension of the fungus. The plants were then incubated at 90-100% relative atmospheric humidity for 5 days and were placed in a greenhouse at 20°-24° C. for 10 further days. The scab attack was evaluated 15 days after the infection. Compounds nos. 18, 5 and 9 and others inhibited the disease attack to less than 10%.

For a further experiment, the system named is Endomyces geotrichum. The experiment in a line: MIC against fungi, strain M. In kind it is cell-based. To be noted: malt extract agar. On the procedure: (§1) Determination of the minimum inhibitory concentration (MIC) against fungi
(§2) The investigation is carried out in malt extract agar (Merck) by the known agar incorporation test using the fungi
(§3) For inhibition, the various compounds are in each case added in amounts such that concentrations of […] results in the agar. The concentrations (mg/liter) required for inhibition of the growth of the fungi (starting from traces of fungi dripped on) are illustrated in Table D.

A further experiment concerns Chlorella vulgaris. The experiment in a line: Action against Chlorella vulgaris. Format: cell-based. Further details: key to Growth in the medium: 1: no growth in the medium, 3 ppm have a growthinhibiting action; key to Growth on the agar: 2: no growth on the agar, 3 ppm have destroyed the algae within 6 hours. Conditions: 3 mg/liter. On the procedure: Determination of the action against algae
A Chlorella vulgaris culture grown for 14 days in algae nutrient medium is diluted 1:200 in algae nutrient medium. Each of the compounds listed in Table E is then added such that a concentration of 3 mg/liter results. After incubation for 6 hours, 10 μl are in each case withdrawn and dripped onto algae agar in order to determine the destructive action.

A further experiment has as its system Pseudomonas aeruginosa. The experiment in a line: MIC against bacteria, strain B. Conditions: 24 h, 30° C., tested at 100 or 300 mg/liter. In kind it is cell-based. As to the method:
(§4) Determination of the minimum inhibitory concentration (MIC) against bacteria
(§5) ONCs (cultures incubated overnight) of the bacteria strains A-F grown in Caso-Peptone broth (Merck) are each diluted […] in saline. An amount of the suspension is introduced into Caso-Peptone broth such that the bacteria are again diluted 1:1,000. The cultures are treated with 100 or 300 mg/liter of the phosphonium stannates shown in Table B. After incubation at 30° C. in a shaking water bath for 24 hours, the cultures are evaluated on the basis of cloudiness. The MIC is the concentration at which the broth is not clouded by bacterial growth.

Experiment [1] relates to Enteromorpha intestinalis. The experiment in a line: Action against Enteromorpha intestinalis. Format: cell-based. On the procedure: (b) Enteromorpha intestinalis
The action against the green alga Enteromorpha most important in sea water fouling is investigated in sterile-filtered sea water containing Erd-Schreiber solution. The solution is composed of a nutrient extract, phosphate and nitrate. Incubation of the Enteromorpha intestinalis takes place in a light thermostat at 18° C. under a 14 hours light/10 hours dark cycle.
The algae grown in this manner are exposed for a short time (4 hours), in sea water, to the products to be investigated. The minimum killing concentration (MKC) is determined by removing the algae from the sea water containing a certain amount of algicide at the end of the period of action, washing them and investigating them for growth or destruction after renewed incubation in fresh sea water for 6 to 8 weeks.
The minimum killing concentration (MKC) is the amount of substance required to harm the alga within a certain period of time to the extent that it can no longer recover in fresh sea water and dies off.
To determine the inhibitory concentration (MIC), the alga is kept in sea water containing biocide throughout the entire duration of the experiment (concentration tested: 0.1 and 0.5 mg/liter).

Another experiment relates to Candida albicans. The experiment in a line: MIC against fungi, strain L. Format: cell-based. Conditions: malt extract agar. As to the method: as §1, §2, §3
For the next experiment, the system named is Penicillium funiculosum. The experiment in a line: MIC against fungi, strain I. Format: cell-based. To be noted: malt extract agar. On the procedure: as §1, §2
I Penicillium funiculosum
as §3

A further experiment deals with Aureobasidium pullulans. The experiment in a line: MIC against fungi, strain N. In kind it is cell-based. Conditions: malt extract agar. On the procedure: as §1, §2
N Aureobasidium pullulans
as §3

Another experiment deals with Aspergillus niger. The experiment in a line: MIC against fungi, strain G. In kind it is cell-based. Conditions: malt extract agar. On the procedure:
as §1, §2

For a further experiment, the system named is Aspergillus phoenicia. The experiment in a line: MIC against fungi, strain H. To be noted: malt extract agar. In kind it is cell-based. On the procedure:
as §1, §2, §3

The subject of another experiment is Enterobacter aerogenes. The experiment in a line: MIC against bacteria, strain C. Format: cell-based. To be noted: 24 h, 30° C., tested at 100 or 300 mg/liter. As to the method: as §4, §5
For a further experiment, the system named is Proteus vulgaris. The experiment in a line: MIC against bacteria, strain A. Format: cell-based. Conditions: 24 h, 30° C., tested at 100 or 300 mg/liter. On the procedure:
as §4, §5

Experiment [2] deals with Alkaligenes denitrificans. The experiment in a line: MIC against bacteria, strain E. Format: cell-based. Conditions: 24 h, 30° C., tested at 100 or 300 mg/liter. On the procedure:
as §4, §5

The test system of experiment [3] is Cladosporium cladosporioides. The experiment in a line: MIC against fungi, strain K. Conditions: malt extract agar. Format: cell-based. On the procedure:
as §1, §2
K Cladosporium cladosporioides
as §3

The test system of a further experiment is Serratia marcenscens. The experiment in a line: MIC against bacteria, strain D. Format: cell-based. To be noted: 24 h, 30° C., tested at 100 or 300 mg/liter. As to the method: as §4, §5
The subject of the next experiment is Artemia salina. The experiment in a line: Action against Artemia salina. In kind it is in vivo. Further details: key: 0: nauplii not affected; 1: slight change; 1-2: nauplii affected; 2: nauplii severely affected; 2-3: almost all nauplii dead; 3: all nauplii dead. From the text:
Determination of the action against Artemia salina
The commercially available eggs are caused to hatch under powerful aeration. […]

For a further experiment, the system named is Bacillus subtilis. The experiment in a line: MIC against bacteria, strain F. In kind it is cell-based. To be noted: 24 h, 30° C., tested at 100 or 300 mg/liter. As to the method: as §4, §5
The next experiment has as its system Chaetomium globosum. The experiment in a line: MIC against fungi, strain O. Format: cell-based. Conditions: malt extract agar. As to the method: as §1, §2, §3
Another experiment has as its system Alternaria alternata. The experiment in a line: MIC against fungi, strain J. Format: cell-based. To be noted: malt extract agar. As to the method:
as §1, §2, §3

On to `CCCCCCCCCCCCCC[P+](CCCC)(CCCC)CCCC.[Cl][Sn-]([Cl])([CH]1CCCCC1)([CH]1CCCCC1)[CH]1CCCCC1` [Example 18, tri-n-bytyl-n-tetradecyl-phosphonium tricyclohexyldichlorostannate], for which the “disease (scab) attack (inhibited to less than)” value with Venturia inaequalis was “less than 10%”.

As for `CCCCCCCCCCCCCC[P+](CCCC)(CCCC)CCCC.[CH3][Sn-]([CH3])([Cl])([Cl])[Cl]` [Example 20], the MIC against fungi against Endomyces geotrichum is 10 µg/mL; against Candida albicans, 10 µg/mL; with Penicillium funiculosum it was 10 µg/mL; in the experiment with Aureobasidium pullulans, 10 µg/mL; in the experiment on Aspergillus niger, 50 µg/mL; against Aspergillus phoenicia, 50 µg/mL. For the same molecule, the figures for the MIC against fungi (in [3]; with Chaetomium globosum; in the experiment with Alternaria alternata) were 10 µg/mL, 10 µg/mL and 50 µg/mL, respectively. Also, the “Growth on the agar” value in the experiment on Chlorella vulgaris (6 hours exposure (algae-destruction action)) was determined as 2. In addition, the “Growth in the medium” value with Chlorella vulgaris (14 days (inhibition of growth)) was determined as 1. Besides, the MIC in the experiment on Pseudomonas aeruginosa is 100 µg/mL; in experiment [1] (kept in sea water containing biocide throughout, tested 0.1 and 0.5 mg/liter), more than 0.5 µg/mL; with Enterobacter aerogenes, 100 µg/mL; against Proteus vulgaris, 100 µg/mL; in experiment [2], 100 µg/mL; against Serratia marcenscens, 100 µg/mL. In addition, the MIC in the experiment with Bacillus subtilis was 100 µg/mL. For the same molecule, the “Destruction 5 mg/liter” value in experiment [1] (5 mg/liter, 4 hours exposure in sea water, re-incubation 6 to 8 weeks) is reported as “yes”. Further, the “Action against Artemia salina” value with Artemia salina (0.25 mg/liter, 6 hours) is 0; in the experiment with Artemia salina (0.25 mg/liter, 24 hours), 1-2; in the experiment on Artemia salina (0.25 mg/liter, 48 hours), 2-3; with Artemia salina (0.5 mg/liter, 6 hours), 1; in the experiment on Artemia salina (0.5 mg/liter, 24 hours) it was 2; with Artemia salina (0.5 mg/liter, 48 hours), 3. The “Action against Artemia salina” value was 2 in the experiment with Artemia salina (1 mg/liter, 6 hours); 2-3 in the experiment on Artemia salina (1 mg/liter, 24 hours); 3 in the experiment on Artemia salina (1 mg/liter, 48 hours); 1-2 in the experiment with Artemia salina (2.5 mg/liter, 6 hours); 3 with Artemia salina (2.5 mg/liter, 24 hours); 3 with Artemia salina (2.5 mg/liter, 48 hours).
